Source: US12246004B2, “Therapeutic treatment of microsatellite unstable cancers” (THE BROAD INSTITUTE, INC., priority 2018, dated 2025)

Experiments:
KM12 xenografts = assay: KM12 xenograft growth with doxycycline-inducible shRNA; type: in vivo, mice; conditions: doxycycline induction of shRNA (FIG. 2D)
Procedure: Studies were approved by the Institutional Animal Care and Use Committee (IACUC) of the Broad Institute under animal protocol 0194-01-18. IACUC guidelines on the ethical use and care of animals were followed. For growth curves, 10^6 KM12 cells expressing WRN shRNA 1 or WRN-C911 shRNA 1 were inoculated subcutaneously into right hind flank of approximately 8-week-old female SCID Hairless Outbred (SHO) mice obtained from Charles River Laboratories. Tumors were measured twice weekly with calipers and the tumor volumes were calculated using the formula π/6×(width^2×length). When primary tumors reached around 100 mm^3, the mice were randomized onto Control Teklad Global 18% Protein Rodent Diet or Teklad Global 18% Protein Rodent Diet containing 625 mg kg^−1 doxycycline hyclate. Mice remained on their respective diets throughout the remainder of the study. Animal body weights were recorded twice weekly during the course of the study for body condition scoring. For the growth curves, n=5 (4 from days 15-18), 5, 4, 4 for WRN shRNA 1 without doxycycline, WRN shRNA 1 with doxycycline, WRN-C911 shRNA 1 without doxycycline, WRN-C911 shRNA 1 with doxycycline treatment, respectively. One mouse treated with KM12 cells with WRN shRNA 1 without doxycycline was euthanized before day 15 because of tumor ulceration. No experiments exceeded the maximal tumor volumes of 2,000 mm^3 set forth by the IACUC. […]

MSI cells = assay: Telomere PNA-FISH of metaphase spreads; type: cell-based; conditions: two MSI cell lines; 96 h after induction of shRNA
Procedure: (§1) In brief, 3×10^6 cells were plated in 10-cm dishes in the absence of doxycycline. For cells treated with doxycycline, 0.2 μg ml^−1 of doxycycline was added and refreshed every 48 h. Then, 96 h after adding doxycycline, cells were treated with 10 μg ml^−1 of colcemid for 3 h and then detached with trypsin. Half of the cell pellet was saved for immunoblot analysis. The other half of the cell pellet was treated with a hypotonic solution (60 mM KCl) and fixed with a 3:1 ratio of methanol:acidic acid. Metaphases were spread onto a slide and fixed with 3% formalin. The PNA-FISH probe ((CCCTAA)3 PNA probe (PNA Bio)) was applied to the slides and denatured at 85° C. for 3 min. The slides were washed with washing solution I (70% formamide, 0.1% Tween-20, 0.1% BSA in 10 mM Tris buffer, pH 7.5) twice and three times with washing solution II (150 mM NaCl, 0.1% Tween-20, 0.1% BSA in 50 mM Tris buffer, pH 7.5). Cy5-ATTCGTTGGAAACGGGA (SEQ ID NO: 28) was used to label centromeres. Images were captured with a Nikon Eclipse 80i microscope and processed with the NISElements BR software. In total, 30 to 60 metaphases were analyzed for cells of the indicated conditions. Two-tailed Student's 1-tests were performed (FIG. 4E). These experiments were performed twice.

MSS cells = assay: Telomere PNA-FISH of metaphase spreads; type: cell-based; conditions: two MSS cell lines; 96 h after induction of shRNA
Procedure: as §1

KM12 cells = assay: Luciferase competitive growth assay, rescue by ectopic WRN cDNA; type: cell-based
Procedure: The catalytically active version, exonuclease-dead (E84A), helicase-dead (K577M) and dually exonuclease and helicase-dead (E84A/K577M) versions of WRN cDNA were a gift from R. J. Monnat (Addgene, plasmids 46038, 46036, 46035 and 46037, respectively). […] The WRN sequence was cloned into a modified lentiviral expression vector, pLX_TRC209, under an EF1A promoter and modified to contain a neomycin-selectable marker. Sanger sequencing of the vectors and genomic DNA after integration were performed to confirm sequence identity. Lentivirus was produced as described below and transduced into dually Cas9-Firefly-luciferase-expressing KM12 cells to create stable ectopic WRN cDNA-expressing cell lines.
Dual Cas9-Firefly-luciferase- and Renilla-luciferase-expressing cells were generated by transduction of Firefly-luciferase cDNA and Renilla-luciferase cDNA, respectively, in a pLX_TRC313 lentiviral expression vector containing a hygromycin-resistance gene. After hygromycin selection, these two versions of the cell line were co-seeded in a 96 well plate at the following densities per well for each version: ES2 2×10^3 cells per well, OVK18, 3×10^3 cells per well; SW620, 4×10^3 cells per well; KM12, 4×10^3 cells per well. The following day, cells were transduced with lentivirus expressing the indicated sgRNA and a puromycin-resistance gene in six replicates. The day following viral transduction, the medium was changed to include puromycin. Cells were split and assayed with the Dual-Glo Luciferase Assay System (Promega) per the manufacturer's recommendations every 3-4 days. Luminescence was determined using the Perkin Elmer EnVision 2105. Values are presented as the ratio of Firefly to Renilla-luciferase luminescence signal per condition and normalized to the mean of the corresponding negative control sgRNAs for each cell line. Experiments in FIG. 2C and FIG. 7B were performed three times. Two-tailed Student's t-tests were performed when comparing single sgRNAs (FIG. 2C). Two-way ANOVAs were performed when multiple WRN sgRNAs were compared to negative controls (FIG. 7B).

WRN = assay: Immunoblot of WRN levels after sgRNA transduction; type: cell-based; conditions: KM12 cells expressing WRN cDNA (FIG. 2B)
Procedure: For immunoblotting, cells were lysed in RIPA buffer (Sigma-Aldrich) supplemented with complete Protease Inhibitor Cocktail (Roche, 11697498001) and a Halt Phosphatase Inhibitor Cocktail (Thermo Fischer Scientific, 78428). For etoposide and hydroxyurea treatment (FIG. 4A), cells were treated with 10 μM etoposide and 1 mM hydroxyurea, respectively, 6 h before collection. Lysates were fractionated in 4-12% Bis-Tris gels (Invitrogen), which was then transferred to PVDF membranes (Immobilon-FL PVDF Millipore, IPFL00010) and blocked for an hour with Odyssey Blocking Buffer (PBS) (LI-COR Biosciences, 927-40000). Types of primary antibodies and the dilutions used for immunoblotting were as follows: anti-phospho-CHK2 (T68) (R&D Systems, AF1626, 1:400); anti-total CHK2 (Cell Signaling Technology, 3440, 1:1,000); anti-[…] (Cell Signaling Technology, 9718, 1:1,000); anti-GAPDH (Cell Signaling Technology, 5174, 1:1,000); anti-MLH1 (Cell Signaling Technology, 3515, 1:1,000); anti-MSH3 (BD Biosciences, 611390, 1:400); anti-WRN (Novus Biologicals, nb100-472, 1:1,000). The following secondary antibodies were used: goat anti-rabbit IRDye 800CW (LI-COR, 926-32211, 1:5,000), goat anti-rabbit IRDye 680LT (LI-COR, 926-68021), and goat anti-mouse IRDye 800CW (LI-COR, 926-32210). […]

| Substance | Tumor growth (KM12 xenografts) | Chromosomal integrity (DSBs, fragmentation) in metaphase spreads (MSI cells) | Chromosomal integrity (DSBs, fragmentation) in metaphase spreads (MSS cells) | Rescue of viability by WRN cDNA (KM12 cells; Cas9-expressing KM12 cells, 9 days after sgRNA transduction (FIG. 2C)) | Rescue of viability by exonuclease-dead (E84A) WRN cDNA (KM12 cells; KM12 cells (FIGS. 2B and 2C)) | Rescue of viability by helicase-dead (K577M) WRN cDNA (KM12 cells; KM12 cells (FIGS. 2B and 2C)) | Silencing of endogenous versus exogenous WRN (immunoblot) (WRN) |
| --- | --- | --- | --- | --- | --- | --- | --- |
| WRN shRNA 1: shRNA targeting WRN chosen from project DRIVE, CAGCACTGCCAATGGTTCCAA; SEQ ID NO: 5 | significantly impaired tumor growth | induced DSBs and fragmentation throughout chromosomes | but not in MSS cells | – | – | – | – |
| WRN EIJ sgRNA: sgRNA targeting a WRN exon-intron junction, target sequence AGCACGTACATAAGCATCAG (SEQ ID NO: 4) (only the sgRNA target sequence is given, scaffold and chemistry not given here, further chemistry not given here) | – | – | – | rescued | did not attenuate rescue | prevented rescue | silencing endogenous WRN, but not exogenous WRN cDNA |
